# Experimental data published in US12377087B2, “Compounds for the treatment of cancer” (UNIVERSITY OF LOUISVILLE RESEARCH FOUNDATION, INC., priority 2015, dated 2025).
# Assays:
# human recombinant PFKFB4 = human recombinant PFKFB4 (Homo sapiens, UniProt Q16877); experiment: fructose-6-phosphate kinase activity of human recombinant PFKFB4 (in vitro kinase assay); assay type: biochemical
# Method: (§1) Kinase assays: The fructose-6-phosphate kinase activity of human recombinant PFKFB4 in the presence of DMSO±indicated 5MPN concentrations was assayed as previously described. The activity of 5MPN against 97 kinases was examined using a commercially available active-site dependent competition binding assay core service (KINOMEscanEDGE) that quantifies the capacity of lest agents to compete with an immobilized, active-site directed ligand using a DNA-tagged kinase and immobilized ligand and compound. For example, enzyme inhibition was studies using a ADP-Glo assay. […] ADP is converted into ATP, which is converted into light by a luciferase.
# hT/LT/Ras cells = experiment: viable cell count of hT/LT/Ras cells; assay type: cell-based, human; conditions: 48 hours
# From the text: (§2) Cell lines and cell culture: H460, H1299, H441, H522 and A549 non-small cell lung cancer (NSCLC), MDA-MB-231 (breast), LNCaP (prostatic) and HCT116 (colon) adenocarcinoma and Lewis lung carcinoma (LLC) cell lines were obtained from ATCC and used within 6 months of acquisition, PFKFB4^7 ear pinna Fibroblasts isolated from TamCre/loxP/PFKFB4^−/− mice were immortalized as described previously (Chesney J et al. Fructose-2,6-bisphosphate synthesis by 6-phosphofructo-2-kinase/fructose-2,6-bisphosphatase 4 (PFKFB4) is required for the glycolytic response to hypoxia and tumor growth. Oncotarget 2014 Aug. 30; 5(16):6670-86). Normal bronchial epithelial cells (NHBE) were obtained from Lonza and NHBE cells expressing telomerase, SV40 large T antigen and activated Ras (hT/LT/Ras) were a gift from Dr. B. J. Rollins, Dana Farber Cancer Institute. All cell lines were tested and found negative for mycoplasma (PCR Mycoplasma Detection Kit, ABM). […]
# (§3) Cell Viability: Cells were incubated in 20% trypan blue (Sigma) for 5 minutes. Cells excluding trypan blue were counted using a standard hemocytometer (Hausser Scientific) to determine total numbers of viable cells. Data are expressed as mean±SD of three experiments.
# H460 cells [1] = experiment: F2,6BP measurements in H460 cells; assay type: cell-based, human
# Method: F2,6BP measurements: Cells or tissues were prepared as previously described and F2,6BP content measured using a coupled enzyme reaction following the method of Van Schaftingen et at (Van Schaftingen E et al. A kinetic study of pyrophosphate: fructose-6-phosphate phosphotransferase from potato tubers. Application to a microassay of fructose 2,6-bisphosphate. Eur J Biochem 1982 December; 129(1): 191-5) and normalized to total cellular protein measured by the bicinchoninic acid assay (BCA, Thermo Scientific). […] In order to measure F2,6BP, cells were harvested, washed with PBS, lysed in NaOH/Tris acetate by heating at 80° C. and lysates neutralized to pH 7.2. F2,6BP content was measured using a coupled enzyme reaction following the method of Van Schaftingen et al (Eur J Biochem. 1982; 129(1): 191-195). The F2,6BP concentration was normalized to total cellular protein measured by the bicinchoninic acid assay (BCA, Thermo Scientific) All data are expressed as the mean±SD of three experiments. Statistical significance was assessed by the two-sample t test (independent variable).
# A549 = experiment: viable cell count of A549 cells; assay type: cell-based; conditions: A549, 48 hours
# Method: as §3
# H460 cells [2] = experiment: ATP measurements in H460 cells; assay type: cell-based, human; conditions: H460, 10 μM 5MPN, 6-72 hours
# Method: Cells were lysed and intracellular ATP determined as described previously. For example, cells were washed (while still adherent) with cold PBS 1×, lysed with Passive Lysis Buffer (1×; Molecular Probes, Invitrogen) added directly to the plates, and immediately harvested by scraping. The lysates were flash frozen (to −80° C.) and thawed (to 37° C.) once to accomplish complete lysis and then centrifuged (at 4° C.) for 30 seconds to clear the lysates. Intracellular ATP levels were determined using a bioluminescence assay (Molecular Probes), utilizing recombinant firefly luciferase and its substrate, D-luciferin. The luminescence was read in a TD-20/20 luminometer (Turner Designs) at 560 nm. The ATP values were calculated using an ATP standard curve. The protein concentrations of the lysates were estimated using the BCA assay (Pierce Biotechnology) and ATP was expressed as pmol/μg protein. All data are expressed as the mean±SD of three experiments. Statistical significance was assessed by the two-sample t test (independent variable).
# LLC cells = experiment: in vitro cell cycle analysis of LLC cells; assay type: cell-based; conditions: 10 μM 5MPN
# Method: Flow Cytometry: To measure apoptosis, cells were stained with annexin V and propidium iodide and examined as previously described. […] DMSO used as vehicle. For cell cycle experiments, cells were detached, washed with cold PBS and fixed in 70% ethanol (4° C. 30 minutes). The cells then were pelleted by centrifugation, resuspended in PBS containing PI and RNase A, incubated at 37° C. in the dark for 30 minutes and analyzed by flow cytometry (BD FACSCalibur). Data were analyzed using FlowJo software (TREE STAR Inc.). Results were calculated as the mean±SD of three experiments.
# [3] = system: PFKFB4−/− lung fibroblasts; experiment: cell counts of tamoxifen-inducible PFKFB4-/- lung fibroblasts; assay type: cell-based, mice; conditions: 4HT-induced deletion, 10 μM 5MPN, 24 hours
# From the text: as §2, §3
# [4] = system: panel of 97 protein kinases; experiment: KINOMEscan active-site dependent competition binding assay; conditions: 10 μM; data not shown
# Method: as §1
# [5] = system: H460 human lung adenocarcinoma xenografts; experiment: H460 xenograft tumor growth in athymic mice; assay type: in vivo, BALB/c athymic mice; conditions: 120 mg/kg oral daily
# LLC xenografts = experiment: Ki67 immunohistochemistry of LLC xenografts; assay type: in vivo, C57BL/6 mice; conditions: 120 mg/kg by gavage daily, two weeks
# Method: Immunohistochemistry: Formalin-fixed, paraffin-embedded tissue sections were processed as previously described then incubated with anti-Ki-67 primary antibody (Abeam) overnight, followed by HRP-linked goat anti-rabbit secondary antibody (1:300. Pierce). Sections were developed with 3,3′-diaminobenzidine tetrahydrochloride, counterstained, scanned and analyzed with the positive pixel count algorithm as previously described. Data are depicted as % positive pixels/total pixels±SD.
# HCT116 = experiment: viable cell count of HCT116 cells; assay type: cell-based; conditions: HCT116, 48 hours
# Method: as §3
# human recombinant PFKFB4, sequence (Q16877 whole entry): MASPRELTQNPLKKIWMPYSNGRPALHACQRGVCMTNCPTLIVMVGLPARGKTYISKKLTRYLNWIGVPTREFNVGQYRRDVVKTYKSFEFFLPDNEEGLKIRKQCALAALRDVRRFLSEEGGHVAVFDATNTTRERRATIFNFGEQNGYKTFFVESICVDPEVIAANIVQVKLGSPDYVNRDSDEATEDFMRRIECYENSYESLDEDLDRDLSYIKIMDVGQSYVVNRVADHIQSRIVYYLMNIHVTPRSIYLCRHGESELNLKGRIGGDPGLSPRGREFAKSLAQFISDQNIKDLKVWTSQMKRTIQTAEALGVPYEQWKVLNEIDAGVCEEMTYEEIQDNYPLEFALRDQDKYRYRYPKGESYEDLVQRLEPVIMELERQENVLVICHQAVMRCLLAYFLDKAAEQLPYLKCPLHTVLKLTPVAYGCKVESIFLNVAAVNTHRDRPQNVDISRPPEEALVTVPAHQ
smiles,measurement,setting,value
"COc1cccc2c(NCCCCCO[N+](=O)[O-])ccnc12 [5MPN, 5-[(8-methoxyquinolin-4-yl)amino]pentyl nitrate]",PFKFB4 activity (kinase activity of recombinant PFKFB4),"human recombinant PFKFB4; 0, 0.1, 1 or 10 μM 5MPN, F6P 0-2000 μmol/L",significantly inhibited
same,"mode of inhibition, Lineweaver-Burk analyses",human recombinant PFKFB4; F6P binding site,competitive inhibitor
same,"cell growth, live cells",hT/LT/Ras cells,suppressed similar to other transformed cells
same,"intracellular concentration of F2,6BP","H460 cells [1]; H460, 10 μM 5MPN, 6-72 hours",reduced
same,"reduction in F2,6BP with over-expression of PFKFB4","H460 cells [1]; H460 transfected with PFKFB4, 10 μM 5MPN, 24 hours",reversed
same,"growth, viable cells",A549,dose-dependent reduction in growth
same,ATP,H460 cells [2],reduced
same,cell cycle arrest in LLC cells in vitro,LLC cells,G1 arrest
same,anti-proliferative effect with genomic deletion of Pfkfb4,[3],sensitized
same,inhibition of a panel of 97 protein kinases,[4],not inhibited
same,body weight,[5]; H460-bearing athymic mice,without affecting body weight
same,tumor growth of H460 xenografts,[5]; athymic mice,suppressed the growth
same,Ki67-positive cells in LLC xenografts,LLC xenografts,reduction in Ki67-positive cells
same,"growth, viable cells",HCT116,dose-dependent reduction in growth
